ChEMBL document CHEMBL3297734, “Cationic lipid-conjugated dexamethasone as a selective antitumor agent” (Eur J Med Chem, 2014)
Calls of active or inactive are those of the source. The rule behind the calls is not given here.

What was measured:
[1] = Anticancer against mouse B16F10 cells after 72 hrs by MTT assay; format: functional, cell-based; settings: B16-F10, 72 h
[2] = tested on: MCF7; assay: Anticancer against human MCF7 cells after 72 hrs by MTT assay; format: functional, cell-based; settings: MCF7, 72 h
[3] = tested on: A549; assay: Anticancer against human A549 cells after 72 hrs by MTT assay; format: functional, cell-based; settings: A549, 72 h
[4] = tested on: CHO; assay: Cytotoxicity against CHO cells after 72 hrs by MTT assay; format: cell-based; settings: Cricetulus griseus
[5] = tested on: HEK-293T; assay: Cytotoxicity against HEK293T cells after 72 hrs by MTT assay; format: cell-based; settings: Homo sapiens
[6] = Cytotoxicity against mouse fibroblasts after 72 hrs by MTT assay; format: cell-based; settings: Fibroblast
[7] = tested on: B16-F10; assay: Induction of apoptosis in mouse B16F10 cells assessed as necrotic cells at 10 uM after 48 hrs using FITC-annexin V-FITC/propidium iodide by flow cytometry (reference value: 1.7%); format: functional
[8] = tested on: B16-F10; assay: Induction of apoptosis in mouse B16F10 cells assessed as late apoptotic cells at 10 uM after 48 hrs using FITC-annexin V-FITC/propidium iodide by flow cytometry (reference value: 2.5%); format: functional
[9] = tested on: B16-F10; assay: Induction of apoptosis in mouse B16F10 cells assessed as early apoptotic cells at 10 uM after 48 hrs using FITC-annexin V-FITC/propidium iodide by flow cytometry (reference value: 0.7%); format: functional
[10] = tested on: B16-F10; assay: Induction of apoptosis in mouse B16F10 cells assessed as viable cells at 10 uM after 48 hrs using FITC-annexin V-FITC/propidium iodide by flow cytometry (reference value: 95.1%); format: functional; settings: B16-F10, 48 h, read-out: Activity
[11] = tested on: MCF7; assay: Induction of apoptosis in human MCF7 cells assessed as necrotic cells at 10 uM after 48 hrs using FITC-annexin V-FITC/propidium iodide by flow cytometry (reference value: 7.1%); format: functional
[12] = tested on: MCF7; assay: Induction of apoptosis in human MCF7 cells assessed as late apoptotic cells at 10 uM after 48 hrs using FITC-annexin V-FITC/propidium iodide by flow cytometry (reference value: 3.5%); format: functional
[13] = tested on: MCF7; assay: Induction of apoptosis in human MCF7 cells assessed as early apoptotic cells at 10 uM after 48 hrs using FITC-annexin V-FITC/propidium iodide by flow cytometry (reference value: 3%); format: functional
[14] = tested on: MCF7; assay: Induction of apoptosis in human MCF7 cells assessed as viable cells at 10 uM after 48 hrs using FITC-annexin V-FITC/propidium iodide by flow cytometry (reference value: 86.4%); format: functional; settings: MCF7, 48 h, read-out: Activity
[15] = tested on: CHO; assay: Induction of apoptosis in CHO cells assessed as necrotic cells at 10 uM after 48 hrs using FITC-annexin V-FITC/propidium iodide by flow cytometry (Rvb =6.6%); format: cell-based, Cricetulus griseus; settings: chinese hamster
[16] = tested on: CHO; assay: Induction of apoptosis in CHO cells assessed as late apoptotic cells at 10 uM after 48 hrs using FITC-annexin V-FITC/propidium iodide by flow cytometry (reference value: 0%); format: cell-based, Cricetulus griseus; settings: chinese hamster
[17] = tested on: CHO; assay: Induction of apoptosis in CHO cells assessed as early apoptotic cells at 10 uM after 48 hrs using FITC-annexin V-FITC/propidium iodide by flow cytometry (reference value: 0.1%); format: cell-based, Cricetulus griseus; settings: chinese hamster
[18] = Induction of apoptosis in CHO cells assessed as viable cells at 10 uM after 48 hrs using FITC-annexin V-FITC/propidium iodide by flow cytometry (reference value: 93.3%); format: cell-based, Cricetulus griseus; settings: chinese hamster, read-out: Activity
[19] = tested on: HEK-293T; assay: Induction of apoptosis in HEK293T cells assessed as necrotic cells at 10 uM after 48 hrs using FITC-annexin V-FITC/propidium iodide by flow cytometry (reference value: 0.7%); format: cell-based; settings: human
[20] = tested on: HEK-293T; assay: Induction of apoptosis in HEK293T cells assessed as late apoptotic cells at 10 uM after 48 hrs using FITC-annexin V-FITC/propidium iodide by flow cytometry (reference value: 0.4%); format: cell-based; settings: human
[21] = tested on: HEK-293T; assay: Induction of apoptosis in HEK293T cells assessed as early apoptotic cells at 10 uM after 48 hrs using FITC-annexin V-FITC/propidium iodide by flow cytometry (reference value: 0.3%); format: cell-based; settings: human
[22] = Induction of apoptosis in HEK293T cells assessed as viable cells at 10 uM after 48 hrs using FITC-annexin V-FITC/propidium iodide by flow cytometry (reference value: 98.6%); format: cell-based, HEK-293T; settings: human, read-out: Activity
[23] = tested on: B16-F10; assay: Antitumor activity against mouse B16F10 cells xenografted in C57BL/6 mouse assessed as inhibition tumor growth at 20 mg/kg, ip measured after 24 days of tumor inoculation; format: functional, organism-based; set-up: dose 20 mg/kg
[24] = tested on: B16-F10; assay: Antitumor activity against mouse B16F10 cells xenografted in C57BL/6 mouse assessed as apoptotic regions at 20 mg/kg, ip measured after 24 days of tumor inoculation by TUNEL assay; format: functional, organism-based; set-up: dose 20 mg/kg
[25] = tested on: B16-F10; assay: Antitumor activity against mouse B16F10 cells xenografted in C57BL/6 mouse assessed as apoptotic regions at 20 mg/kg, ip measured after 24 days of tumor inoculation by VE-cadherin; format: functional, organism-based; set-up: dose 20 mg/kg
[26] = tested on: B16-F10; assay: Induction of apoptosis in mouse B16F10 cells assessed as increase in ratio of BAX/Bcl2 expression at 10 uM after 48 hrs by Western blot analysis relative to untreated control; format: functional, cell-based

C[C@@H]1C[C@H]2[C@@H]3CCC4=CC(=O)C=C[C@]4(C)[C@@]3(F)[C@@H](O)C[C@]2(C)[C@@]1(O)C(=O)CO [DEXAMETHASONE]
IC50 [1]: > 20 µM | IC50 [2]: > 15 µM | IC50 [3]: > 15 µM | IC50 [4]: > 20 µM | IC50 [5]: > 20 µM | IC50 [6]: > 15 µM | Activity [7]: 1.3% | Activity [8]: 3.7% | Activity [9]: 0.8% | viability at 10 µM [10]: 94.1% | Activity [11]: 9.5% | Activity [12]: 5.9% | Activity [13]: 2.4% | viability at 10 µM [14]: 82.8% | Activity [15]: 4.2% | Activity [16]: 0% | Activity [17]: 0% | viability at 48 h, 10 µM [18]: 95.8% | Activity [19]: 0.4% | Activity [20]: 0.1% | Activity [21]: 0.1% | viability at 48 h, 10 µM [22]: 94.4% | inhibition [23]: Active | Activity [24]: Active | Activity [25]: Active | Activity [26]: Active

CCCCCCCCCCCC[N+](C)(CCCCCCCCCCCC)CCNC(=O)[C@@]1(O)[C@H](C)C[C@H]2[C@@H]3CCC4=CC(=O)C=C[C@]4(C)[C@@]3(F)[C@@H](O)C[C@@]21C
IC50 [1]: > 15 µM | IC50 [2]: 13.5 µM | IC50 [3]: 14 µM | IC50 [4]: > 20 µM | IC50 [5]: > 15 µM | IC50 [6]: > 15 µM

CCCCCCCCCCCCCCCC[N+](C)(CCCCCCCCCCCCCCCC)CCNC(=O)[C@@]1(O)[C@H](C)C[C@H]2[C@@H]3CCC4=CC(=O)C=C[C@]4(C)[C@@]3(F)[C@@H](O)C[C@@]21C
IC50 [1]: > 15 µM | IC50 [2]: > 15 µM | IC50 [3]: 14.8 µM | IC50 [4]: > 15 µM | IC50 [5]: > 20 µM | IC50 [6]: > 15 µM
